The source of these data is ChEMBL document CHEMBL1152511, “Structural basis for alpha-conotoxin potency and selectivity” (Bioorg Med Chem, 2009).

Residues, ends and D or L forms follow the SMILES beside them.

Assay [1] concerns the target Neuronal acetylcholine receptor; alpha3/beta2 (Homo sapiens, UniProt P17787+P32297). Description: Inhibition of alpha3beta2 nAChR. Format: protein-complex assay.
Assay [2] can be described thus: Selectivity for alpha3beta2 nAChR over alpha6beta2 nAChR.
Assay [3] concerns the target Neuronal acetylcholine receptor; alpha6/beta2 (Homo sapiens, UniProt P17787+Q15825). Description: Inhibition of alpha6beta2 nAChR. Format: protein-complex assay.
Assay [4] in a line: Selectivity ratio of IC50 for alpha6beta2 nAChR to IC50 for alpha3beta2 nAChR.

Neuronal acetylcholine receptor; alpha3/beta2, sequence (P17787 whole entry): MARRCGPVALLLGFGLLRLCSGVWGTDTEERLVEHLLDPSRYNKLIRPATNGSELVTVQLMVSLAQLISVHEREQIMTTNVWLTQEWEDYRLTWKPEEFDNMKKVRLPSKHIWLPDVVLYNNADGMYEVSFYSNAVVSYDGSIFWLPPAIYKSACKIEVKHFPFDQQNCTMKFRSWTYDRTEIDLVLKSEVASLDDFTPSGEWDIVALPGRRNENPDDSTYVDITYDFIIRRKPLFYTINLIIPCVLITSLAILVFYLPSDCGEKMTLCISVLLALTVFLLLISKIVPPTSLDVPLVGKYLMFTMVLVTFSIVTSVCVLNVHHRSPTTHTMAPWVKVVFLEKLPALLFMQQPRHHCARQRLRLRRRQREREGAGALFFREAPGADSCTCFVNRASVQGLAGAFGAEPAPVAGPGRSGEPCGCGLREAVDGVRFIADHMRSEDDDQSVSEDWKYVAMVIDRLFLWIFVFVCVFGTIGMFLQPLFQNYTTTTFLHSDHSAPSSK
Neuronal acetylcholine receptor; alpha3/beta2, sequence (P32297 whole entry): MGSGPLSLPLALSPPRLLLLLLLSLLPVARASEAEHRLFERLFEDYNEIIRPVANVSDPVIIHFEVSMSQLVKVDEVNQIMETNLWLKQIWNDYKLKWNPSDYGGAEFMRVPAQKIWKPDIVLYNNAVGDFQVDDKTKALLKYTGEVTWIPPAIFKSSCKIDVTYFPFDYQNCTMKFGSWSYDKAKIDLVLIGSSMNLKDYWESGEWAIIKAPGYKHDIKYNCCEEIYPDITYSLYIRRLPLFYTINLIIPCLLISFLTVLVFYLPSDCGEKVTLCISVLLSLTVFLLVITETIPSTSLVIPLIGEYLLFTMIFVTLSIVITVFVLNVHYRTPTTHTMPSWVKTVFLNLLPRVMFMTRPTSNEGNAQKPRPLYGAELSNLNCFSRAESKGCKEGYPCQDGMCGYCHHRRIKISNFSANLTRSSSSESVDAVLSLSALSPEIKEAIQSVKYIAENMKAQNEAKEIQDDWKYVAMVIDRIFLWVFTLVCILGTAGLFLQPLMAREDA
Neuronal acetylcholine receptor; alpha6/beta2, sequence (P17787 whole entry): as the sequence (P17787 whole entry) above
Neuronal acetylcholine receptor; alpha6/beta2, sequence (Q15825 whole entry): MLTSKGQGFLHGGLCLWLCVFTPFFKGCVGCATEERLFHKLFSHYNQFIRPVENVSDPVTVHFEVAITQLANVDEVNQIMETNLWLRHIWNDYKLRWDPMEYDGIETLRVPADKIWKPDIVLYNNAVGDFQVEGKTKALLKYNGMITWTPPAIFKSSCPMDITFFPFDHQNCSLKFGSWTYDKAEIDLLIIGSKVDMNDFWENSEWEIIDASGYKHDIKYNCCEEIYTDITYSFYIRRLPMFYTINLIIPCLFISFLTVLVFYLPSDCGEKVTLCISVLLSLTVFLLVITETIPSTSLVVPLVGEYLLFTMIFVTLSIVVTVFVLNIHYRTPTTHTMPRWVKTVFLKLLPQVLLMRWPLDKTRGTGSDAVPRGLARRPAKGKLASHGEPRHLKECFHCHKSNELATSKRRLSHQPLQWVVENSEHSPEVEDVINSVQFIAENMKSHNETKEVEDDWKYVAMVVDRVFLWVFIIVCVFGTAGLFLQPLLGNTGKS

The IC50 is the concentration needed to halve the response being measured. Read a low IC50 as inhibition by little substance. In the case of `CC(C)C[C@H](NC(=O)[C@@H](NC(=O)[C@H](C)NC(=O)[C@H](CS)NC(=O)[C@@H]1CCCN1C(=O)[C@@H]1CCCN1C(=O)[C@@H](NC(=O)[C@H](CO)NC(=O)[C@H](CS)NC(=O)[C@H](CS)NC(=O)CN)[C@@H](C)O)C(C)C)C(=O)N[C@@H](Cc1ccc(O)cc1)C(=O)N[C@@H](CS)C(=O)O` (H-GCCSTPPCAVLYC-OH), the IC50 worked out at 5.72 nM in assay [1] and 0.26 nM in assay [3]. Besides, in assay [2], the Selectivity ratio came to 20. For the same compound, in assay [4], the Ratio IC50 stood at 22.
In assay [1], `CC[C@H](C)[C@H](NC(=O)[C@H](CS)NC(=O)[C@@H]1CCCN1C(=O)[C@@H]1CCCN1C(=O)[C@H](CCCNC(=N)N)NC(=O)[C@H](CO)NC(=O)[C@H](CS)NC(=O)[C@H](CS)NC(=O)CN)C(=O)N[C@@H](C)C(=O)N[C@@H](CC(N)=O)C(=O)N[C@@H](CC(N)=O)C(=O)N1CCC[C@H]1C(=O)N[C@@H](CC(=O)O)C(=O)N[C@@H](CC(C)C)C(=O)N[C@@H](CS)C(=O)O` yielded a 50% inhibitory concentration (IC50) of 3.5 nM.
In the case of `CC[C@H](C)[C@H](NC(=O)[C@H](Cc1cnc[nH]1)NC(=O)[C@@H]1CCCN1C(=O)[C@H](CC(N)=O)NC(=O)[C@H](CC(N)=O)NC(=O)[C@@H](NC(=O)[C@H](CC(N)=O)NC(=O)[C@H](CS)NC(=O)[C@H](C)NC(=O)[C@@H]1CCCN1C(=O)[C@H](Cc1cnc[nH]1)NC(=O)[C@H](CO)NC(=O)[C@H](CS)NC(=O)[C@H](CS)NC(=O)CN)C(C)C)C(=O)N[C@@H](CS)C(=O)NCC(=O)O` (H-GCCSHPACNVNNPHICG-OH), the values for the IC50 in assay [1] and in assay [3] were 11 nM and 201 nM, respectively. Besides, the Selectivity ratio in assay [2] is 20. Besides, the Ratio IC50 in assay [4] was determined as 0.0547.
